Data: US4166182A, “6-N-Propyl-8-methoxymethyl or methylmercaptomethylergolines and related compounds” (priority 1978, dated 1979)
Counter-ions that a name gives are not always drawn. Like-named read-outs stand apart in the source and are kept apart here.

Experiments:
prolactin [1] = test: Inhibition of serum prolactin in reserpine-treated male rats; format: in vivo, Sprague-Dawley rat; set-up: Serum Prolactin Level: unit not given here; details: for inhibition in vivo at 0.05 mg/kg: Rattus norvegicus, read-out: Percent Inhibition of Serum Prolactin; for Serum Prolactin Level: reserpine-pretreated, controls: Exp. 1 30.4 ± 3.4, Exp. 2 55.2 ± 4.1, Exp. 3 42.3 ± 7.3
Procedure: Adult male rats of the Sprague-Dawley strain weighing about 200 g. were housed in an air-conditioned room with controlled lighting (lights on 6 a.m.-8 p.m.) and fed lab chow and water ad libitum. Each rat received an intraperitoneal injection of 2.0 mg. of reserpine in aqueous suspension 18 hours before administration of the ergoline derivative. The purpose of the reserpine was to keep prolactin levels uniformly elevated. The compounds under test were dissolved in 10 percent ethanol at a concentration of 10 mcg/ml. and were injected intraperitoneally at a standard dose of 50 mcg/kg. Each compound was administered to a group of 10 rats, and a control group of 10 intact males received an equivalent amount of 10 percent ethanol. One hour after treatment all rats were killed by decapitation, and 150 μl aliquots of serum were assayed for prolactin. The results were evaluated statistically using Student's "t" test to calculate the level of significance, "p", of the changes in prolactin level.

[2] = tested on: 6-hydroxydopamine-lesioned rats; test: Turning behavior in 6-hydroxydopamine-lesioned (nigro-neostriatal-lesioned) rats; format: in vivo, rat; details: for Latency of Effect: 1 mg./kg. (Table I); for responders at 1 mg/kg: Rattus norvegicus, read-out: % of Rats Exhibiting Turning Behavior
Procedure: In this test, nigro-neostriatal-lesioned rats are employed, which are prepared by the procedure of Ungerstedt and Arbuthnott, Brain Res, 24, 485 (1970). A compound having dopamine agonist activity causes the rats to turn in circles contralateral to the side of the lesion. After a latency period, which varies from compound to compound, the number of turns is counted over a 15-minute period.
The compounds were dissolved in water and the aqueous solution injected into the rat by the intraperitoneal route.

prolactin [3] = details: cited from earlier work
serotonin = test: Serotonin agonism
Parkinsonism = details: in vivo; cited from earlier work
dopamine receptors = details: cited from earlier work
[4] = 50 mcg/kg IP, 1 hour after treatment

## CCCN1C[C@H](CSC)C=C2c3cccc4[nH]cc(c34)C[C@H]21 [D-6-n-propyl-8β-methylmercaptomethyl-9-ergolene]
Prolactin [1]; ip, 1 h
  inhibition in vivo at 0.05 mg/kg: 81%
[2]; IP, 1 mg./kg.
  Duration of Effect: ≥ 2 h
[2]; IP
  Latency of Effect: 4 min
[2]; ip
  responders at 1 mg/kg: 100%

## CN1CC(CC#N)C[C@@H]2c3cccc4[nH]cc(c34)C[C@H]21 (stereo partly drawn) [D-6-methyl-8-cyanomethylergoline]
Prolactin [3]
  activity as prolactin inhibitors (in words): activity as prolactin inhibitors

## CCCN1C[C@H](COC)C[C@@H]2c3cccc4[nH]cc(c34)C[C@H]21 [D-6-n-propyl-8β-methoxymethylergoline methanesulfonate]
Prolactin [1]; [4]
  Serum Prolactin Level: 2.4 ± 0.2
Prolactin [1]; ip, 1 h
  inhibition in vivo at 0.05 mg/kg: 96%
[2]; IP, 1 mg./kg.
  Duration of Effect: ≥ 2 h
[2]; IP
  Latency of Effect: 6 min
[2]; ip
  responders at 1 mg/kg: 100%

## CCCN1C[C@H](C[S+](C)[O-])C[C@@H]2c3cccc4[nH]cc(c34)C[C@H]21 (stereo partly drawn) [D-6-n-propyl-8β-methylsulfinylmethylergoline mesylate]
Prolactin [1]; ip, 1 h
  inhibition in vivo at 0.05 mg/kg: 92%
[2]; IP, 1 mg./kg.
  Duration of Effect: 1 h
[2]; IP
  Latency of Effect: 7 min
[2]; ip
  responders at 1 mg/kg: 100%

## CCN1C[C@H](CSC)C[C@@H]2c3cccc4[nH]cc(c34)C[C@H]21 [D-6-ethyl-8β-methylmercaptomethylergoline mesylate]
Prolactin [1]; [4]
  Serum Prolactin Level: 3.9 ± 0.4
Prolactin [1]; ip, 1 h
  inhibition in vivo at 0.05 mg/kg: 91%
[2]; IP, 1 mg./kg.
  Duration of Effect: ≥ 2 h
[2]; IP
  Latency of Effect: 9 min
[2]; ip
  responders at 1 mg/kg: 100%

## CCCN1CC(CSC)=C[C@@H]2c3cccc4[nH]cc(c34)C[C@H]21 [D-6-n-propyl-8-methylmercaptomethyl-8-ergolene maleate]
Prolactin [1]; [4]
  Serum Prolactin Level: 3.9 ± 0.2
Prolactin [1]; ip, 1 h
  inhibition in vivo at 0.05 mg/kg: 91%
[2]; IP, 1 mg./kg.
  Duration of Effect: 1 h
[2]; IP
  Latency of Effect: 4 min
[2]; ip
  responders at 1 mg/kg: 100%

## CCCN1C[C@H](CSC)C[C@@H]2c3cccc4[nH]cc(c34)C[C@H]21 [D-6-n-propyl-8β-methylmercaptomethylergoline methanesulfonate]
Prolactin [1]; 50 mcg/kg IP, 1 hour after treatment, versus control of same experiment
  inhibition in vivo at 0.05 mg/kg: 95%
Prolactin [1]; from dose response curves
  times more potent as a prolactin inhibitor than the corresponding D-6-methyl compound: about 100 times
[2]; IP, 1 mg./kg., aqueous solution
  responders at 1 mg/kg: 100%
[2]; from dose response curves
  times more potent in the turning behavior test than the corresponding D-6-methyl derivative: about 30 times

## CSC[C@@H]1C[C@@H]2c3cccc4[nH]cc(c34)C[C@H]2N(C)C1 [D-6-methyl-8β-methylmercaptomethylergoline mesylate, reference compound]
Prolactin [1]; ip, 1 h
  inhibition in vivo at 0.05 mg/kg: 58%
[2]; IP, 1 mg./kg.
  Duration of Effect: ~ 2 hours
[2]; IP
  Latency of Effect: 30 to 45 min
[2]; ip
  responders at 1 mg/kg: 50%

## CCCN1C[C@H](CSC)C[C@@H]2c3cccc4[nH]cc(c34)C[C@H]21 [D-6-n-Propyl-8β-methylmercaptomethylergoline]
serotonin
  serotonin agonist or antagonist (in words): serotonin agonists rather than serotonin antagonists

## CC(C)C[C@H]1C(=O)N2CCC[C@H]2[C@]2(O)O[C@](NC(=O)[C@@H]3C=C4c5cccc6[nH]c(Br)c(c56)C[C@H]4N(C)C3)(C(C)C)C(=O)N12 [2-bromo-α-ergokryptine]
Prolactin [3]
  activity as prolactin inhibitors (in words): activity as prolactin inhibitors
Parkinsonism
  usefulness in the treatment of Parkinsonism (in words): useful in the treatment of Parkinsonism

## CCCN1C[C@H](CSC)C[C@@H]2c3cccc4[nH]c(Br)c(c34)C[C@H]21 [D-2-bromo-6-n-propyl-8β-methylmercaptomethylergoline mesylate]
Prolactin [1]; [4]
  Serum Prolactin Level: 4.6 ± 0.4
Prolactin [1]; ip, 1 h
  inhibition in vivo at 0.05 mg/kg: 89%
[2]; IP, 1 mg./kg.
  Duration of Effect: 1 h
[2]; IP
  Latency of Effect: 5 min
[2]; ip
  responders at 1 mg/kg: 100%

## CC(C)[C@H]1C(=O)N2CCC[C@H]2[C@]2(O)O[C@](NC(=O)[C@@H]3C[C@@H]4c5cccc6[nH]cc(c56)C[C@H]4N(C)C3)(C(C)C)C(=O)N12 [dihydroergocornine]
Prolactin [3]
  activity as prolactin inhibitors (in words): activity as prolactin inhibitors

## CC(C)[C@H]1C(=O)N2CCC[C@H]2[C@]2(O)O[C@](NC(=O)[C@@H]3C=C4c5cccc6[nH]cc(c56)C[C@H]4N(C)C3)(C(C)C)C(=O)N12 [ergocornine]
Dopamine receptors
  dopamine receptor stimulation (in words): stimulate dopamine receptors
Prolactin [3]
  activity as prolactin inhibitors (in words): activity as prolactin inhibitors

## CN1C[C@H](CC#N)C[C@@H]2c3cccc4[nH]c(Cl)c(c34)C[C@H]21 [lergotrile]
Parkinsonism
  usefulness in the treatment of Parkinsonism (in words): useful in the treatment of Parkinsonism
